Measurements from patent publication US4861798A, “Lipoxygenase inhibitory compounds” (Bristol-Myers Company, priority 1987, dated 1989).
Where two headings read alike, the source gives them in different places.

What was measured:
[1] = molecular target: T1, 5-lipoxygenase (Human Leukocyte/PMNL 5-LPO) (Homo sapiens, UniProt P09917); experiment: Inhibition of 5-lipoxygenase (5-HETE formation) in human neutrophil/platelet system; format: cell-based; settings: for % Inhibition at 100 μm: 4-alkoxyphenyl compounds
T1 construct: Human neutrophils and platelets were obtained from the blood of normal volunteers; endogenous in cells; host or cells: human blood leukocytes (neutrophils) of normal volunteers, with 0.1 to 0.5 platelets per leukocyte
T1 sequence (P09917 1-674): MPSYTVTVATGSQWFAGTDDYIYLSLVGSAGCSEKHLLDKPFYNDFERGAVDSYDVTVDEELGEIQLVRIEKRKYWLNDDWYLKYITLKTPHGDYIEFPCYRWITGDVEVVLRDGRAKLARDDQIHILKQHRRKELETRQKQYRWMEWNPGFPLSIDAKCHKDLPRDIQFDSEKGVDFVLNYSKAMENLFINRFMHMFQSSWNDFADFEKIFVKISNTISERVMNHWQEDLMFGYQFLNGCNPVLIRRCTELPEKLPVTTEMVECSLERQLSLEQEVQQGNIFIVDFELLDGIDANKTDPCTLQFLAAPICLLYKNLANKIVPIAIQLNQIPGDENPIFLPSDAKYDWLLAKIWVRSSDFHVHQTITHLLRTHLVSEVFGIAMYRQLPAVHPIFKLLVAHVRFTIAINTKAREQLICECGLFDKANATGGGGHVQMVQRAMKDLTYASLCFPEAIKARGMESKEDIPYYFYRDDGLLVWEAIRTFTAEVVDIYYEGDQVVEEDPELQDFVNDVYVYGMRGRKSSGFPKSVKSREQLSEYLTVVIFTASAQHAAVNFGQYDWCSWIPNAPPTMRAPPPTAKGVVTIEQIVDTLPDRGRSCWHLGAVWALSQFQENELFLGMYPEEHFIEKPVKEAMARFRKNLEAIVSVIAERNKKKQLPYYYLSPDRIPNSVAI
From the text: This test is a measure of the inhibition of the synthesis of lipoxygenase products generated by human neutrophils and platelets. The protocol is similar to that described in the article "Comparative Effects of Indomethacin, Acetylenic Acids, 15-HETE, NDGA and BW755C on the Metabolism of Arachidonic Acid in Human Leukocytes and Platelets", H. Solari, P. Braquet and P. Borgeat, Prost. Leuk. Med. 13, pp. 53-60, 1984.
Human neutrophils and platelets were obtained from the blood of normal volunteers. The blood was collected into tubes containing EDTA as an anticoagulant. The blood was centrifuged at 250×g for 15 minutes and the platelet rich plasma was removed. The cell fraction was mixed with an equal volume of 0.9% saline containing 10 mM dextrose and resuspended in Dulbecco's phosphate buffered saline (PBS) without Mg^++ and Ca^++ and was counted. The cell suspension was adjusted to give a leukocyte count of 2-3×10^7 cells/ml.
Test compounds were dissolved in ethanol and added to polypropylene tubes. To control tubes (drug-free) only ethanol was added. The ethanol was evaporated to dryness under a stream of argon and then 0.1 ml of the cell suspension (2-3×10^6 cells) was added. This mixture was pre-incubated for 5 minutes at 37° and then the reaction was initiated by addition of ^3 H-arachidonic acid, calcium ionophore (A23187), and calcium ion. The final concentration of each component was: arachidonic acid, 10 uM; A23187, […]; calcium ion, […]. After 5 minutes the incubations were stopped by addition of an equal volume of methanol. The tubes were spun at 11,000 g for 2 minutes to pellet the precipitated protein. The supernatant was analyzed by HPLC for 5-HETE. The formation of this product is indicative of 5-lipoxygenase activity. Test drugs were evaluated for their ability to inhibit 5-HETE formation. Percent inhibition of varying concentrations of test drugs was determined in duplicate by comparing the peak quantitation in the presence and absence (control) of drug. […] The IC50 values were calculated from log-dose response curves of pooled data from at least two experiments by linear regression analysis.
The activity was tested by the same method as in the previous example.
The enzyme inhibitory activity of these compounds was tested by the same method.

[2] = test system: cell infiltration (leukocytes); experiment: Carrageenan sponge implantation model, cell infiltration; format: in vivo, rat
From the text: (§1) The carrageenan sponge implantation model is primarily used to measure the effect of antiinflammatory agents on cell infiltration. An acute inflammatory response is stimulated by the implantation of a small sponge beneath the skin of rats. The sponge normally contains an inflammatory stimulus such as carrageenan and produces a response which is characterized by infiltration of cells and accumulation of fluid. The number of cells in the exudate can be conveniently measured in the exudate fluid.
(§2) The compound of Example I was evaluated for its local effect on cell migration and mediator production in this model. For comparison, indomethacin and BW755C were also evaluated after local application. Polyester sponges were soaked in solutions of 0.5% carrageenan (in normal saline) which also contained 1% or 5% wt/vol of the test compound. The impregnated sponge was inserted through a small incision on the dorsal surface of a lightly anesthetized rat into a subcutaneous pocket formed by blunt dissection. The incision was then closed. The control treatment consisted of a sponge soaked in 0.5% carrageenan in normal saline. Animals were sacrificed 6 hours after sponge implantation. Sponges are dissected out an placed in heparinized saline. The number of infiltrating cells were determined using a coulter counter. The inflammatory mediators prostaglandin E2, LTB4 and TxB2 in the exudate were determined by radioimmunoassay.

[3] = test system: inflammatory mediators prostaglandin E2, LTB4 and TxB2; experiment: Carrageenan sponge implantation model, mediator production in exudate; format: in vivo, rat; settings: Experiment 2, 5% compound
From the text: as §1, §2

Human Platelet CO = molecular target: T2, Human Platelet CO (Homo sapiens, UniProt P23219); experiment: Inhibition of CO, human platelet; format: cell-based; settings: 95% confidence interval given for some
T2 construct: Human neutrophils and platelets were obtained from the blood of normal volunteers; endogenous in cells; host or cells: human platelets from blood of normal volunteers

Human Platelet 12-LPO = molecular target: T3, Human Platelet 12-LPO (Homo sapiens, UniProt P18054); experiment: Inhibition of 12-LPO, human platelet; format: cell-based; settings: @ 100 μM; read-out: % I Human Platelet 12-LPO
T3 construct: Human neutrophils and platelets were obtained from the blood of normal volunteers; endogenous in cells; host or cells: human platelets from blood of normal volunteers
T3 sequence (P18054 1-663): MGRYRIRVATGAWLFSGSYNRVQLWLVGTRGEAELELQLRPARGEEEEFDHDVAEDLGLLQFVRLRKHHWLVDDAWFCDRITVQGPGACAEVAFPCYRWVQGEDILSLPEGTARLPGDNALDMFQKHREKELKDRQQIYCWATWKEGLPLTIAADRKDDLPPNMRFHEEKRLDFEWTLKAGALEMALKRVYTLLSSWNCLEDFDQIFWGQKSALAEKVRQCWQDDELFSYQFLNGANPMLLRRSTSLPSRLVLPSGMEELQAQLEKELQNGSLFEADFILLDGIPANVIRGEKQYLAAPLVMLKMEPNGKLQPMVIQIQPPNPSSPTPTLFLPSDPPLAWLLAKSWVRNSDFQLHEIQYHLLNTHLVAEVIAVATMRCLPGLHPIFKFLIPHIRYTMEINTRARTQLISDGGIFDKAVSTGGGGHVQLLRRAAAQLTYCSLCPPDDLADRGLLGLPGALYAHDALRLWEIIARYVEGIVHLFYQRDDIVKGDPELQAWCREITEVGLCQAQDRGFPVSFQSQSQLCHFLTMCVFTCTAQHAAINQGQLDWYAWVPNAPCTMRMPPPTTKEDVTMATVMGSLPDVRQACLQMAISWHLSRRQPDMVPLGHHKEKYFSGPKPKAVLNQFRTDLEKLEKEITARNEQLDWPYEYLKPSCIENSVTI

[4] = ring-substituted 9-phenylnonanohydroxamic acids, read-out: IC50 (5-lipoxygenase)
[5] = text comparison with prior-art compound, read-out: IC50 in the 5-lipoxygenase inhibition test
[6] = FIG. 1 table, 95% confidence interval, read-out: IC50 Human PMNL 5-LPO
[7] = Table I, R=H, phenylalkyl hydroxamic acids, read-out: IC50 5-LPO (Inhibition of Human Leukocyte 5-LPO)

T2 sequence (P23219 24-599): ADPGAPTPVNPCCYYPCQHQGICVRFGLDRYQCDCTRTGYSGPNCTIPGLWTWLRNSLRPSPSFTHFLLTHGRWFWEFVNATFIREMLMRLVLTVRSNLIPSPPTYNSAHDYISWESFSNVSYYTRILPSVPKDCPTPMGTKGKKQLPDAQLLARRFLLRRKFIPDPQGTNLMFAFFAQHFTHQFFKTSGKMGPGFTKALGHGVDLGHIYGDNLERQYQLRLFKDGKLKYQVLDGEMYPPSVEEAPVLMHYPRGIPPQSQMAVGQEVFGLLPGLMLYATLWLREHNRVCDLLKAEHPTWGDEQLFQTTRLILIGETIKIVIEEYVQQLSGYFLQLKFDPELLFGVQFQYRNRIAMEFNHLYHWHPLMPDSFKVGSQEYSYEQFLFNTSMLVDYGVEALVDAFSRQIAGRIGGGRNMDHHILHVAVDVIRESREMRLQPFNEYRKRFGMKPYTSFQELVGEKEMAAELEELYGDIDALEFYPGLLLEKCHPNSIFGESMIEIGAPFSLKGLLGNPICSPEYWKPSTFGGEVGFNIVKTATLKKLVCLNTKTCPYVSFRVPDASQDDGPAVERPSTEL

## COc1cccc(CCCCCCCCC(=O)NO)c1 [BMY 30181, 9(3-methoxyphenyl)nonanohydroxamic acid]
[1]; [4]
  IC50: 5.4 µM

## Cc1cccc(CCCCCCCCC(=O)NO)c1 [BMY 30182, 9(3-methylphenyl)nonanohydroxamic acid]
[1]; [4]
  IC50: 6.2 µM

## CCCCCCOc1ccc(CCCCCCCCC(=O)NO)cc1 [BMY 30230, 9(4-Hexyloxyphenyl)nonanohydroxamic acid]
[1]
  % Inhibition at 100 μm: 0%

## CCCCOc1ccc(CCCCCCCCC(=O)NO)cc1 [BMY 30239, 9(4-Butoxyphenyl)nonanohydroxamic acid]
[1]
  % Inhibition at 100 μm: 56.0%

## CCCCCCOc1ccc(CCCCCCCCC(=O)N(O)C(C)C)cc1 [BMY 30240, N-isopropyl 9(4-hexyloxyphenyl)nonanohydroxamic acid]
[1]
  % Inhibition at 100 μm: 45.8%

## CCCCCCOc1ccc(CCCCCCCCC(=O)N(C)O)cc1 [BMY 30241, N-Methyl 9(4-Hexyloxyphenyl)nonanohydroxamic acid]
[1]
  % Inhibition at 100 μm: 95.9%

## NC1=NN(c2cccc(C(F)(F)F)c2)CC1 [BW755C, reference compound]
[2]; Experiment 2, 0.5% carrageenan plus 5% compound in sponge, 6 h, control 33.0 ± 3.8
  Leukocyte No.: 6.9 ± 1.7 cells/ml (× 10^-6)
[2]; dosed at 5%
  reduction of cell infiltration: 79%
[3]; control 19.2 ± 1.9
  TXB2: 0.8 ± 0.3 ng/ml Exudate
[3]; control 137.6 ± 13.1
  PGE2: 3.0 ± 1.0 ng/ml Exudate

## O=C(CCCCCCc1ccccc1)NO [Compound 2a]
[1]; [5]
  IC50: 20.9 µM

## O=C(CCCCCCCc1ccccc1)NO [Compound 2b]
[1]; [6]
  IC50: 12.2 µM
Human Platelet CO
  IC50: 26 µM
Human Platelet 12-LPO
  inhibition at 100 µM: 53%

## O=C(CCCCCCCCCc1ccccc1)NO [Compound 2c]
[1]; [6]
  IC50: 11.6 µM
Human Platelet CO
  IC50: 32 µM
Human Platelet 12-LPO
  inhibition at 100 µM: 10%

## O=C(CCCCCCCCCCc1ccccc1)NO [Compound 2d]
[1]; [7]
  IC50: 11 µM

## O=C(CCCCCCCCCCCc1ccccc1)NO [Compound 2e]
[1]; [7]
  IC50: 10.3 µM

## O=C(NO)c1ccccc1 [n=0, reference compound]
[1]; [7]
  IC50: > 100 µM

## O=C(Cc1ccccc1)NO [n=1, reference compound]
[1]; [7]
  IC50: > 100 µM

## O=C(CCc1ccccc1)NO [n=2, reference compound]
[1]; [7]
  IC50: > 100 µM

## O=C(CCCCCCCCCCCCc1ccccc1)NO [n=12, reference compound]
[1]; [7]
  IC50: > 50 µM

## O=C(CCCCCc1ccccc1)NO [reference compound]
[1]; [5]
  IC50: > 100 µM
